According to patent US20070107077A1, “Microprojectile bombardment transformation of brassica” (Pioneer Hi-Bred International, Inc., priority 2005, published 2007):
“And” between values parts separate entries of the source, which are not always exact repeats. Identical values can stand only once. Counter-ions that a name gives are not always drawn.

Key:
Design in all cases: species or system Brassica
[1] = system: pre-incubated microspores bombarded with PHP22021 and PHP22024; test: Glyphosate resistant embryo selection in liquid medium NLN-6.5S after bombardment
Description: Pre-incubated microspores were used as bombarded materials. Any Brassica line that is capable of regenerating by microspore culture can be used. The microspores were cultured for 1-3 days in NLN-17S at 31.5° C, and then in NLN-10S for 4-5 days at 25° C. The constructs used in the bombardments were PHP18644, PHP21965, PHP22024, PHP22021, and PHP23560 (see Table 9). The constructs can be the full plasmid or the expression cassette only. For example, PHP22024 can be either the expression cassette or the full plasmid. The pre-incubated microspores were filtrated with sieves of pore size of […] to 36 μm. The collected microspores were used for bombardment. The microspores were loaded on a sieve 15 μm or 20 μm on two layers of filter-paper and dried for less than one minute. The microspores and sieves were transferred to osmotic medium that contained B5 components, 1 g/l MES and 0.8-1.6% gelrite, 15-21% sucrose (pH 6.0). The microspores were treated for at least one hour on the osmotic medium before bombardment. The pre-incubated microspores were bombarded with 12.5 ng to 5 μg DNA per preparation, 15-100 μg Au particles per shot, 2.5 M CaCl2, and 650-900 psi rupture disk. […] Resistant embryos were recorded after two to three weeks of culture. […]

[2] = system: non-bombarded embryos; test: Effect of kanamycin on embryo growth in liquid medium, non-bombarded embryos
Source text: (§1) Prior to this experiment, selection was done on solid medium, not in liquid medium. Using liquid selection for Brassica transgenic cells is novel. Selection in liquid medium is advantageous for at least the following reasons: (a) it allows selection at an early stage, thereby eliminating the need for subsequent transfers of explants, (b) it allows for a cleaner selection because the explants are generally smaller when they are in liquid medium and the liquid allows all the surfaces of the explant to be exposed to the selection agent, (c) it may reduce the frequency of chimeras, and (d) a lower amount of the selection agent is needed therefore reducing the toxicity to the researcher and the environment. The effect of various concentrations of kanamycin on embryo growth in liquid medium was tested. […] Accordingly, it was difficult to discriminate transgenic tissue or embryos from non-transgenic.

[3] = system: non-transgenic microspores; test: Selection kill curve using Geneticin (G418): embryo growth and survival in liquid medium
Source text: The objective was to determine the concentration of G418 that kills non-transgenic microspores.
as §1

O=C(O)CNCP(=O)(O)O [Glyphosate, glyphosate]
# embryos (abnormal)/plate ([1]; glyphosate 0.2 mM, plasmid PHP22021): 0 | selection efficiency, false positives ([1]; selection at 0.2 mM compared with 0.1 mM glyphosate): fewer false positive results

NC[C@H]1O[C@H](O[C@H]2[C@H](O)[C@@H](O[C@H]3O[C@H](CO)[C@@H](O)[C@H](N)[C@H]3O)[C@H](N)C[C@@H]2N)[C@H](O)[C@@H](O)[C@@H]1O [kanamycin]
concentration sufficient to bleach non-bombarded embryos and inhibit non-bombarded embryo growth [2]: 10 mg/L

CN[C@@H]1[C@@H](O)[C@@H](O[C@@H]2[C@@H](O)[C@H](O[C@H]3O[C@H]([C@@H](C)O)[C@@H](O)[C@H](O)[C@H]3N)[C@@H](N)C[C@H]2N)OC[C@]1(C)O [G418, G418 disulfate salt]
# Green embryos or with green island ([3]; G418 1.25 mg/l, disulfate salt): 30 (paler) and 28 (paler) | # Green embryos or with green island ([3]; G418 2.5 mg/l, disulfate salt): 14 (light green, smaller size) and 11 (light green, smaller size) | # Green embryos or with green island ([3]; G418 5 mg/l): 0 | # Green embryos or with green island ([3]; G418 10 mg/l): 0 | concentration sufficient to differentiate transformed cells from untransformed cells (cleaner selection) ([3]; NLN with 6.5% sucrose medium): 5 to 10 mg/L
